Source: patent publication US20130165520A1, “Hybrid Molecule Having Mixed Retinoic Acid Receptor Agonism and Histone Deacetylase Inhibitory Properties” (priority 2010, published 2013)

Columns and labels:
[1] = system: HT29; experiment: cells; details: Homo sapiens, HT-29, 48 h
[2] = system: RAR target genes in MCF-7 cell line; experiment: RT-qPCR analysis of RAR target genes; type: cell-based
Source text: The agonist activity of 3 through its effects on RAR target genes was subsequently analyzed (FIG. 3).

[3] = system: SK-MEL-28; details: SK-MEL-28 (Melanoma); 48 h
[4] = system: COLO205; details: COLO205 (Colon); 48 h
[5] = system: KM12; details: KM12 (Colon); 48 h
[6] = system: OVCAR-4; experiment: cells; details: Homo sapiens, OVCAR-4, 48 h
[7] = system: SNB-75; experiment: cells; details: Homo sapiens, SNB-75, 48 h
[8] = system: U251; experiment: cells; details: Homo sapiens, U-251, 48 h
[9] = system: EKVX; details: EKVX (Non-Small cell lung cancer); 48 h
[10] = system: SF-295; experiment: cells; details: Homo sapiens, SF-295, 48 h
[11] = system: SR; details: SR (Leukemia); 48 h
[12] = system: 786-0; details: 786-0 (Renal); 48 h
[13] = system: A549/ATCC; experiment: cells; details: Homo sapiens, A549, 48 h
[14] = system: MOLT-4; details: MOLT-4 (Leukemia); 48 h
[15] = system: NCI-H23; details: NCI-H23 (Non-Small cell lung cancer); 48 h
[16] = system: NCI/ADR-RES; details: 48 h
[17] = system: UACC-62; details: UACC-62 (Melanoma); 48 h
[18] = system: TK-10; experiment: cells; details: Homo sapiens, TK-10, 48 h
[19] = system: COLO205; experiment: cells; details: Homo sapiens, COLO 205, 48 h
[20] = system: acetylated histone H4 and p53 in MDA-MB-231 cells; experiment: Western blotting of acetylated histone H4 and p53; details: 10 μM, 18-24 h time course
Experimental: The potential of 3 to act as an HDACi and cause deacetylation of a synthetic substrate or hyperacetylation of HDACs target proteins was subsequently assessed. […] Intracellular HDACi activity was assessed by measuring levels of acetylated histone H4 and tumor suppressor protein p53 in MDA-MB-231 cells by Western blotting.
Western Blotting: MDA-MB-231 cells were plated in DMEM 5% FBS-T at 600 k cells per well in 6-well plates. […] Laemmli buffer at various time points. Protein concentration of the extracts was analyzed by BioRad DC protein assay. 20 μg of proteins per condition were loaded on an SDS-PA gel and transferred to a nitrocellulose membrane for blotting. Blotting was done using ABCAM primary antibodies EP356 (anti-p53) T3526 (anti-Tubulin) and AB1761 (anti-acH4).

[21] = system: OVCAR-3; experiment: cells; details: Homo sapiens, OVCAR-3, 48 h
[22] = system: HL-60(TB); experiment: cells; details: Homo sapiens, HL-60, 48 h
[23] = system: HCC-2998; experiment: cells; details: Homo sapiens, HCC 2998, 48 h
[24] = molecular target: purified human HDAC3 (Homo sapiens, UniProt O15379); experiment: Standard fluorescence HDAC assay; type: biochemical; details: purified human enzyme, read-out: IC50 against HDAC3
purified human HDAC3, sequence (O15379 whole entry): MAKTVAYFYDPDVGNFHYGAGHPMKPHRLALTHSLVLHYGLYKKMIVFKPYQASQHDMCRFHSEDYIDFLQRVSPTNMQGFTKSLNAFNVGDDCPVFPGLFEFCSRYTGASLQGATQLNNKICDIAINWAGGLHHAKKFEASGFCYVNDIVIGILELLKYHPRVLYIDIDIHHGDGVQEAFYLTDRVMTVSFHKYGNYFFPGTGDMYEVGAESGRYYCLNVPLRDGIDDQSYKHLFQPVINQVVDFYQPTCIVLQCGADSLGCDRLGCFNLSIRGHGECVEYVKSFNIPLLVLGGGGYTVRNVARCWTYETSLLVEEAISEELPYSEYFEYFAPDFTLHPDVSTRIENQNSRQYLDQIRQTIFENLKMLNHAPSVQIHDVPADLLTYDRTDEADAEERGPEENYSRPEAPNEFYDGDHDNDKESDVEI
purified human HDAC3, sequence (Q9Y618 395-489 partner limits assumed): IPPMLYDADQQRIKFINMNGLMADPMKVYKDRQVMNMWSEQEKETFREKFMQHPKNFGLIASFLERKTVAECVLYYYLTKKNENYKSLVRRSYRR

[25] = system: M14; details: M14 (Melanoma); 48 h
[26] = system: CCRF-CEM; details: CCRF-CEM (Leukemia); 48 h

SMILES: CC1(C)CCC(C)(C)c2cc(-c3ccc4cc(C(=O)NO)ccc4c3)ccc21 [hybrid 3]
- GI50 [1]: 575 nM
- CC50 ([1]; read-out: LC50): 7600 nM
- induction of RAR target genes (RT-qPCR) [2]: clear induction of RARB2 and DHRS3
- TGI [3]: 5500 nM
- TGI [4]: 2330 nM
- TGI [5]: 1880 nM
- GI50 [6]: 533 nM
- CC50 ([6]; read-out: LC50): 29100 nM
- GI50 [7]: 1740 nM
- CC50 ([7]; read-out: LC50): 24900 nM
- GI50 [8]: 437 nM
- CC50 ([8]; read-out: LC50): 4800 nM
- TGI [9]: 3430 nM
- GI50 [10]: 385 nM
- CC50 ([10]; read-out: LC50): 6110 nM
- TGI [11]: 1200 nM
- TGI [12]: 2370 nM
- GI50 [13]: 473 nM
- CC50 ([13]; read-out: LC50): 7800 nM
- TGI [14]: 1460 nM
- TGI [15]: 2430 nM
- TGI [16]: 1760 nM
- TGI [17]: 1860 nM
- GI50 [18]: 1100 nM
- CC50 ([18]; read-out: LC50): 25000 nM
- GI50 [19]: 797 nM
- CC50 ([19]; read-out: LC50): 6020 nM
- hyperacetylation of histone H4 and p53 [20]: clear hyperacetylation
- GI50 [21]: 603 nM
- CC50 ([21]; read-out: LC50): 4480 nM
- GI50 [22]: 353 nM
- CC50 ([22]; read-out: LC50): 7660 nM
- GI50 [23]: 1090 nM
- CC50 ([23]; read-out: LC50): 5750 nM
- IC50 [24]: 5000 nM
- TGI [25]: 2490 nM
- TGI [26]: 1950 nM
